From patent US12358901B2, “KV3 modulators” (priority 2018, dated 2025)

Experiments:
[1] = molecular target: human Kv3.1 channels (hKv3.1) (Homo sapiens, UniProt P48547); assay: cell-based; type: cell-based; settings: for Kv3.1 pEC50: HEK-hKv3.1 cells, -15 mV voltage step, normalised to 50 microM reference compound; for Kv3.1 max R %: maximum response relative to reference compound (50 microM)
Excerpt: The ability of the compounds of the invention to modulate the voltage-gated potassium channel subtypes Kv3.3/Kv3.2/Kv3.1 may be determined using the following assay. Analogous methods may be used to investigate the ability of the compounds of the invention to modulate other channel subtypes.
To assess compound effects on human Kv3.1 channels (hKv3.1):
Human embryonic kidney (HEK)-hKv3.1 cell line is generated by transfecting HEK-293 cells with an expression vector with human Kv3.1 (NM_004976.4). Cells are cultured with MEM supplemented with 10% Heat-Inactivated FBS, 2 mM L-glutamine, 1% Penicillin-Streptomycin, and 0.6 mg/ml of Geneticin (G418). HEK-hKv3.1b cells were amplified in T175 cm2 flask at 37° C. with 5% CO2, using MEM amplification medium, containing the G418 selection antibiotic (0.6 mg/ml). Cells were detached every 3-4 days, using DPBS to wash twice the flask, then TrypLE to dislodge the cells, and re-plated at a density of 2-4×10^6 cells/flask.
The day of the experiment, cells are removed from the incubator and the culture medium removed. Cells are washed with 5 ml of Dulbecco's PBS (DPBS) calcium and magnesium free and detached by the addition of 3 ml Versene (Invitrogen, Italy) followed by a brief incubation at 37° C. for 5 minutes. The flask is tapped to dislodge cells and 10 ml of DPBS containing calcium and magnesium is added to prepare a cell suspension. The cell suspension is then placed into a 15 ml centrifuge tube and centrifuged for 2 min at 1200 rpm. After centrifugation, the supernatant is removed and the cell pellet re-suspended in 4 ml of DPBS containing calcium and magnesium using a 5 ml pipette to break up the pellet. Cell suspension volume is then corrected to give a cell concentration for the assay of approximately 3 million cells per ml.
Experiments are conducted at r.t. using IonWorks Quattro™ planar array electrophysiology technology (Molecular Devices Corp.) with PatchPlate™ PPC. Stimulation protocols and data acquisition are carried out using a microcomputer (Dell Pentium 4). Planar electrode hole resistances (Rp) are determined by applying a 10 mV voltage step across each well. These measurements are performed before cell addition. After cell addition and seal formation, a seal test is performed by applying a voltage step from −80 mV to −70 mV for 160 ms. Following this, amphotericin-B solution is added to the intracellular face of the electrode to achieve intracellular access. Cells are held at −70 mV. Leak subtraction is conducted in all experiments by applying 50 ms hyperpolarizing (10 mV) prepulses to evoke leak currents followed by a 20 ms period at the holding potential before test pulses.
For hKv3.2 and hKv3.1, assays from the holding potential of −70 mV, a first test pulse at −15 mV was applied for 100 ms and after 100 ms at −70 mV a second pulse at +40 mV was applied for 50 ms. Cells were then maintained for 100 ms at −100 mV and another pulse from −70 mV to +40 mV (duration 50 ms) was applied to clamp later the voltage at −40 mV during 200 ms
The intracellular solution contains the following (in mM): K-gluconate 100, KCl 54, MgCl2 3.2, HEPES 5, adjusted to pH 7.3 with KOH. Amphotericin-B solution is prepared as 50 mg/ml stock solution in DMSO and diluted to a final working concentration of 0.1 mg/ml in intracellular solution. The external solution is Dulbecco's Phosphate Buffered Saline (DPBS) and contained the following (in mM): CaCl2 0.90, KCl 2.67, KH2PO4 1.47, MgCl·6H2O 0.493, NaCl 136.9, Na3PO4 8.06, with a pH of 7.4.
Compounds of use in the invention (or reference compounds such as N-cyclohexyl-N-[(7,8-dimethyl-2-oxo-1,2-dihydro-3-quinolinyl)methyl]-N-phenylurea) are dissolved in dimethylsulfoxide (DMSO) at a stock concentration of 10 mM. These solutions are further diluted with DMSO using a Biomek FX (Beckman Coulter) in a 384 compound plate. Each dilution (1 μL) is transferred to another compound plate and external solution containing 0.05% pluronic acid (66 μL) is added. […]

[2] = Determination of brain tissue binding (equilibrium dialysis); type: in vitro ADME; settings: Sprague Dawley, rat whole brain homogenate, 5 h at 37° C.
Description: Sprague Dawley rat whole blood, collected on the week of the experiment using K3-EDTA as an anti-coagulant, is diluted with isotonic phosphate buffer 1:1 (v/v). Sprague Dawley rat whole brain, stored frozen at −20° C., is thawed and homogenised in artificial cerebrospinal fluid (CSF) 1:2 (w/v).
An appropriate amount of test compound is dissolved in DMSO to give a 10 millimolar solution. Further dilutions, to obtain a 166.7 micromolar working solution are then prepared using 50% acetonitrile in MilliQ water. This working solution is used to spike the blood to obtain a final concentration of 0.5 micromolar in whole blood. Similarly, the working solution is used to spike brain samples to obtain a final concentration of 5 micromolar in whole brain. From these spiked blood and brain preparations, control samples (n=3), are immediately extracted and used to calculate the initial recovery of the test items.
150 microL of compound-free buffer (isotonic phosphate buffer for blood or artificial CSF buffer for brain) is dispensed in one half-well and 150 microL of spiked matrix (blood or brain) is loaded in the other half-well, with the two halves separated by a semi-permeable membrane. After an equilibration period of 5 h at 37° C., 50 microL of dialysed matrix (blood or brain) is added to 50 microL of corresponding compound-free buffer, and vice-versa for buffer, such that the volume of buffer to matrix (blood or brain) remains the same. Samples are then extracted by protein precipitation with 300 microL of acetonitrile containing rolipram (control for positive ionization mode) or diclofenac (control for negative ionization mode) as internal standards and centrifuged for 10 min at 3000 rpm. Supernatants are collected (100 microL), diluted with 27% AcN in MilliQ water (200 microL) and then injected into an HPLC-MS/MS or UPLC-MS/MS system to determine the concentration of test compound present.
Blood and brain tissue binding are then determined using the following formulas: Afu=Buffer/Blood or Afu=CSF/Brain
Where Afu=apparent fraction unbound; Buffer=analyte/internal standard ratio determined in the buffer compartment; Blood=analyte/internal standard ratio determined in the blood compartment; Brain=analyte/internal standard ratio determined in the brain compartment.
[formula] where: fucr=Fraction unbound corrected; D=matrix dilution factor (D=2 for blood and D=3 for brain).
Then: % Binding=(1−fucr)×100 % Unbound=100−% Bound Brain/Blood Partition Ratio (Kbb) Determination

Structure (SMILES) | Kv3.1 pEC50 [1] | Kv3.1 max R % [1] | fraction unbound at 5 h, 5 micromolar [2] | pEC50 and maxR in the Kv3.1 assay (in words) [1]
CC1(C)NC(=O)N(c2cnc(Oc3cccc4c3C(C)(C)CO4)cn2)C1=O [Example 2, 3-[5-[(3,3-dimethyl-2H-benzofuran-4-yl)oxy]pyrazin-2-yl]-5,5-dimethyl-imidazolidine-2,4-dione] | 4.68 | 149% | – | –
CC[C@@]1(C)NC(=O)N(c2cnc(Oc3cccc4c3C3(CC3)CO4)cn2)C1=O [Example 3, (5R)-5-ethyl-5-methyl-3-(5-spiro[2H-benzofuran-3,1′-cyclopropane]-4-yloxypyrazin-2-yl)imidazolidine-2,4-dione] | 5.15 | 205% | – | –
CC1(C)NC(=O)N(c2cnc(Oc3cccc4c3C3(CC3)CO4)cn2)C1=O [Example 4, 5,5-dimethyl-3-(5-spiro[2H-benzofuran-3,1′-cyclopropane]-4-yloxypyrazin-2-yl)imidazolidine-2,4-dione] | 5.17 | 170% | – | –
CC[C@@]1(C)NC(=O)N(c2cnc(Oc3ccc(C)c4c3C3(CC3)CO4)cn2)C1=O [Example 5, (5R)-5-ethyl-5-methyl-3-[5-(7-methylspiro[2H-benzofuran-3,1′-cyclopropane]-4-yl)oxypyrazin-2-yl]imidazolidine-2,4-dione] | 5.69 | 149% | – | –
CC[C@@]1(C)NC(=O)N(c2cnc(Oc3cccc4c3C(C)(C)CO4)cn2)C1=O [Example 6, (5R)-3-[5-[(3,3-dimethyl-2H-benzofuran-4-yl)oxy]pyrazin-2-yl]-5-ethyl-5-methyl-imidazolidine-2,4-dione] | 4.75 | 165% | – | –
Cc1ccc(Oc2cnc(N3C(=O)NC(C)(C)C3=O)cn2)c2c1OCC2(C)C [Example 7, 5,5-dimethyl-3-[5-[(3,3,7-trimethyl-2H-benzofuran-4-yl)oxy]pyrazin-2-yl]imidazolidine-2,4-dione] | 5.12 | 134% | – | –
CC[C@@]1(C)NC(=O)N(c2cnc(Oc3ccc(C)c4c3C(C)(C)CO4)cn2)C1=O [Example 8, (5R)-5-ethyl-5-methyl-3-[5-[(3,3,7-trimethyl-2H-benzofuran-4-yl)oxy]pyrazin-2-yl]imidazolidine-2,4-dione] | 5.29 | 119% | – | –
CC[C@H]1NC(=O)N(c2cnc(Oc3cccc4c3C(C)(C)CO4)cn2)C1=O [Example 11, (5R)-3-[5-[(3,3-dimethyl-2H-benzofuran-4-yl)oxy]pyrazin-2-yl]-5-ethyl-imidazolidine-2,4-dione] | 4.89 | 165% | – | –
CC[C@H]1NC(=O)N(c2cnc(Oc3ccc(C)c4c3C(C)(C)CO4)cn2)C1=O [Example 12, (5R)-5-ethyl-3-[5-[(3,3,7-trimethyl-2H-benzofuran-4-yl)oxy]pyrazin-2-yl]imidazolidine-2,4-dione] | 5.56 | 118% | – | –
Cc1ccc(Oc2cnc(N3C(=O)NC4(CCC4)C3=O)cn2)c2c1OCC21CC1 [Example 13, 7-[5-(7-methylspiro[2H-benzofuran-3,1′-cyclopropane]-4-yl)oxypyrazin-2-yl]-5,7-diazaspiro[3.4]octane-6,8-dione] | 5.09 | 165% | – | –
Cc1ccc(Oc2cnc(N3C(=O)NC4(CC4)C3=O)cn2)c2c1OCC21CC1 [Example 14, 6-[5-(7-methylspiro[2H-benzofuran-3,1′-cyclopropane]-4-yl)oxypyrazin-2-yl]-4,6-diazaspiro[2.4]heptane-5,7-dione] | 5.51 | 145% | – | –
Cc1ccc(Oc2ncc(N3C(=O)NC(C)(C)C3=O)cn2)cc1OC(F)(F)F [RE1, reference compound] | 4.78 | 105% | – | –
Cc1ccc(Oc2ccc(N3C(=O)NC(C)(C)C3=O)cn2)cc1OC(F)(F)F [RE2, reference compound] | 5.25 | 118% | – | –
Cc1ccc(Oc2ccc(N3C(=O)NC(C)(C)C3=O)nc2)cc1OC(F)(F)F [RE3, reference compound] | 4.89 | 79% | – | –
Cc1ccc(Oc2cnc(N3C(=O)NC(C)(C)C3=O)cn2)cc1OC(F)(F)F [RE4, reference compound] | <4.3 | 24% | – | –
Cc1ccc(Oc2ccc(N3C(=O)NC(C)(C)C3=O)nc2)c2c1OCC21CC1 [RE7, reference compound] | 5.56 | 130% | 0.023 | –
Cc1ccc(Oc2cnc(N3C(=O)NC(C)(C)C3=O)nc2)c2c1OCC21CC1 [RE8, reference compound] | 4.98 | 42% | – | –
Cc1ccc(Oc2ccc(N3C(=O)NC(C)(C)C3=O)nn2)c2c1OCC21CC1 [RE9, reference compound] | <4.3 | 16% | – | –
Cc1ccc(Oc2cncc(N3C(=O)NC(C)(C)C3=O)n2)c2c1OCC21CC1 [RE10, reference compound] | <4.3 | 22% | – | greatly reduced pEC50 and maxR
CC[C@H]1NC(=O)N(c2ccc(Oc3ccc(C)c4c3C3(CC3)CO4)cn2)C1=O [RE12, reference compound] | 5.6 | 149% | 0.019 | –
